According to US9113629B2, “4-amino-6-(4-substituted-phenyl)-picolinates and 6-amino-2-(4-substituted-phenyl)-pyrimidine-4-carboxylates and their use as herbicides” (DOW AGROSCIENCES LLC, priority 2013, dated 2015):

Columns and labels:
Assay in all cases: Post-emergent Test III, herbicidal activity in wheat and barley
Assay type in all cases: in vivo
[1] = system: PAPRH: common poppy (Papaver rhoeas)
How it was run: (§1)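 GR20, GR50, GR80 and GR90 come from probit analysis of visual injury scores (0 = none, 100 = complete kill) taken 21 d after treatment. Foliar application was by track sprayer delivering 187 L/ha at five rates, from high down to 1/16×, onto greenhouse plants at the 2–3 leaf stage, with solvent-blank controls.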

[2] = system: PHAMI: lesser canary grass (Phalaris minor)
How it was run: as §1

[3] = system: STEME: common chickweed (Stellaria media)
How it was run: as §1

[4] = system: SASKR: Russian thistle (Salsola iberica); conditions: 21 days after application
How it was run: as §1

[5] = system: VIOSS: wild pansy (Viola tricolor), field violet (Viola arvensis); conditions: 21 days after application
How it was run: as §1

[6] = probit analysis, dose for growth reduction of 50 percent, 21 days after application
[7] = probit analysis, dose for growth reduction of 80 percent, 21 days after application
[8] = probit analysis, dose for 50 percent growth reduction
[9] = probit analysis, dose for 80 percent growth reduction

COC(=O)c1nc(-c2ccc(Cl)c(F)c2)c(F)c(N)c1Cl [Compound 216]
pest or weed control at 35 g/ha ([1]; Papaver rhoeas, post-emergence, 504 h, 35 g ai/ha, read-out: Visual Growth Reduction (%) 21 Days After Application PAPRH): 95 to 100%
pest or weed control at 70 g/ha ([1]; Papaver rhoeas, post-emergence, 504 h, 70 g ai/ha, read-out: Visual Growth Reduction (%) 21 Days After Application PAPRH): 95 to 100%
pest or weed control at 140 g/ha ([1]; Papaver rhoeas, post-emergence, 504 h, 140 g ai/ha, read-out: Visual Growth Reduction (%) 21 Days After Application PAPRH): 95 to 100%
GR50 PAPRH [1, 6]: 1 g ai/ha
GR80 PAPRH [1, 7]: 1 g ai/ha
pest or weed control at 35 g/ha ([2]; Phalaris minor, post-emergence, 504 h, 35 g ai/ha, read-out: Visual Growth Reduction (%) 21 Days After Application PHAMI): 0 to 29%
pest or weed control at 70 g/ha ([2]; Phalaris minor, post-emergence, 504 h, 70 g ai/ha, read-out: Visual Growth Reduction (%) 21 Days After Application PHAMI): 30 to 44%
pest or weed control at 140 g/ha ([2]; Phalaris minor, post-emergence, 504 h, 140 g ai/ha, read-out: Visual Growth Reduction (%) 21 Days After Application PHAMI): 75 to 84%
GR50 PHAMI [2, 6]: >140 g ai/ha
GR80 PHAMI [2, 7]: >140 g ai/ha
pest or weed control at 35 g/ha ([3]; Stellaria media, post-emergence, 504 h, 35 g ai/ha, read-out: Visual Growth Reduction (%) 21 Days After Application STEME): 30 to 44%
pest or weed control at 70 g/ha ([3]; Stellaria media, post-emergence, 504 h, 70 g ai/ha, read-out: Visual Growth Reduction (%) 21 Days After Application STEME): 30 to 44%
pest or weed control at 140 g/ha ([3]; Stellaria media, post-emergence, 504 h, 140 g ai/ha, read-out: Visual Growth Reduction (%) 21 Days After Application STEME): 75 to 84%
GR50 STEME [3, 6]: 52 g ai/ha
GR80 STEME [3, 7]: >140 g ai/ha

COC(=O)c1nc(-c2ccc(Br)c(F)c2)c(F)c(N)c1Cl [Compound 49]
pest or weed control at 35 g/ha ([4]; Salsola tragus, post-emergence, 504 h, 35 g ai/ha, read-out: Visual Gorowth Reduction (%) 21 days After Application SASKR): 75 to 84%
pest or weed control at 70 g/ha ([4]; Salsola tragus, post-emergence, 504 h, 70 g ai/ha, read-out: Visual Gorowth Reduction (%) 21 days After Application SASKR): 85 to 94%
GR50 SASKR [4, 8]: 1 g ai/ha
GR80 SASKR [4, 9]: 30 g ai/ha
pest or weed control at 35 g/ha ([5]; Viola tricolor, post-emergence, 504 h, 35 g ai/ha, read-out: Visual Gorowth Reduction (%) 21 days After Application VIOSS): 95 to 100%
pest or weed control at 70 g/ha ([5]; Viola tricolor, post-emergence, 504 h, 70 g ai/ha, read-out: Visual Gorowth Reduction (%) 21 days After Application VIOSS): 95 to 100%
GR50 VIOSS [5, 8]: 5 g ai/ha
GR80 VIOSS [5, 9]: 8 g ai/ha
